{"source": "patent US20180263860A1", "about": "“DELIVERY SYSTEMS FOR APPLICATION OF ANTIBIOTIC GEL FORMULATION” (Indiana University Research and Technology Corporation, priority 2015, published 2018)", "key": {"[1]": {"test_system": "three-week old E. faecalis biofilm", "assay": "Biofilm disruption assay on infected dentin samples (Example 2)", "assay_type": "cell-based, Enterococcus faecalis", "conditions": "immersion for 5 minutes", "method": "Unidentified intact human teeth were collected, stored in 0.1% thymol solution at 4° C., and used within 6 months after obtaining local Institutional Review Board approval (IRB #1409251353). A standardized radicular dentin sample (4×4×1 mm^3) was obtained from each root using a slow diamond saw (IsoMet, Buehler, Lake Bluff, Ill.) under continuous distilled water irrigation. The pulpal side of each specimen was wet-finished with silicon carbide abrasive papers (500-2400 grit, Struers, Cleveland, Ohio). The polished samples were then sonicated in deionized water for 3 minutes, washed with sterile water, wrapped individually with moist cotton pellets, placed in Whirl-pak bags (Sigma-Aldrich, St Louis, Mo.), gas sterilized with ethylene oxide, and stored at 4° C. until used. E. faecalis (ATCC 29212) was grown initially on anaerobic blood agar plates (CDC, BioMerieux, Durham, N.C.). […] Dentin samples were placed individually in separate wells of a 96-sterile well plate (Fisherbrand, Fischer Scientific) with the pulpal side facing upwards. Then, 10 μl of an overnight E. faecalis culture (10^6 CFU/mL) dispersed in 190 μL of fresh BHI-YE growth media was added to each dentin specimen. […] The CFUs/mL were quantified using an automated colony counter (Synbiosis, Inc., Frederick, Md.). Summary statistics were calculated for the log-transformed data from each group. […]"}, "[2]": {"test_system": "stem cells from apical papillae and dental pulp stem cells", "conditions": "2% CHX; recent in vitro studies; cited from earlier work"}}, "note": "“Also recorded” adds a separate entry of the source."}
{"smiles": "OCl", "note": "[NaOCl, sodium hypochlorite]", "values": [{"measurement": "antibiofilm effect (log CFU/mL)", "setting": "[1]; 1.5% NaOCl", "result": "significant reduction and complete eradication of E. faecalis biofilm"}]}
{"smiles": "N=C(NCCCCCCNC(=N)NC(=N)Nc1ccc(Cl)cc1)NC(=N)Nc1ccc(Cl)cc1.O=C(O)[C@H](O)[C@@H](O)[C@H](O)[C@H](O)CO.O=C(O)[C@H](O)[C@@H](O)[C@H](O)[C@H](O)CO", "note": "[CHX]", "values": [{"measurement": "antibiofilm effect (log CFU/mL)", "setting": "[1]; 2% CHX", "result": "significant reduction in E. faecalis biofilm; also recorded: nearly eliminate the bacterial biofilm"}, {"measurement": "effects on survival and attachment of stem cells from apical and dental pulp", "setting": "[2]", "result": "highly unfavorable effects"}]}
